{
  "source": "patent US7074595B2",
  "about": "“General means of labeling protein by using wheat embryo cell-free protein synthesis system” (CellFree Sciences Co., Ltd., priority 2000, dated 2006)",
  "format_in_all_cases": "biochemical",
  "conditions_in_all_cases": "NADPH",
  "key": {"[1]": {"target": "T1, dihydrofolate reductase (DHFR), selenomethionine-containing (SeMet-DHFR) (Escherichia coli, UniProt P0ABQ4)", "T1 construct": "made in house; host or cells: wheat embryo extract cell-free protein synthesis (dialysis type)", "T1 sequence (P0ABQ4 1-159)": "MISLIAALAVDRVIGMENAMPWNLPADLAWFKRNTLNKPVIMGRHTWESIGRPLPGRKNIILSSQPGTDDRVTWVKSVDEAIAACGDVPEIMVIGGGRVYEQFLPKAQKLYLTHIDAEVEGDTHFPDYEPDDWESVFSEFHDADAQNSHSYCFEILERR", "test": "enzymatic properties of DHFR (Table 1): Michaelis constant and maximum velocity, SeMet-DHFR", "experimental": "(§1) Purification of GFP and measurement of its activity by analysis of fluorescence spectrum using a fluorospectrophotometer were carried out in accordance with a method by Deschamps, et al. [Deschamps, J. R. et al., (1995) Protein Expression and Purification, 6, 555–558]. In the measurement of fluorescence spectrum, a fluorophotometer of type RF-5000 by Shimadzu was used. DHFR activity was measured by a method of Stanley, et al. [Methods. Enzymol. 18, 195–199 (1971)].\n(§2) Then enzymatic properties of the selenomethionine-containing proteins purified as such were investigated biochemically. Fluorescence emission spectrum of a certain concentration of the purified GFP preparation shown in FIG. 2 excited at the wavelength of 395 nm was measured within a range of 410 nm to 600 nm and the result is shown in FIG. 3. As will be apparent from FIG. 3, there is no difference between the fluorescence emission spectra of GFP [(A) in FIG. 3] and selenomethionine GFP [(B) in FIG. 3]. Thus, the conclusion is that the change in GFP activity by substituting methionine residue with selenomethionine is not higher than the usual measurement sensitivity. […]"}, "[2]": {"target": "T2, dihydrofolate reductase (DHFR), Heavy Hydrogen-Labeled DHFR (20 kinds of heavy hydrogen-labeled L-amino acids) (Escherichia coli, UniProt P0ABQ4)", "T2 construct": "made in house; host or cells: wheat embryo extract cell-free protein synthesis (dialysis type)", "T2 sequence (P0ABQ4 1-159)": "T1 sequence (P0ABQ4 1-159)", "test": "enzymatic properties of DHFR (Table 2): Michaelis constant and maximum velocity, Heavy Hydrogen-Labeled DHFR", "experimental": "as §1\nWith regard to the wheat embryo, that being contaminated with substantially no endosperm component prepared by the method mentioned in Example 1 was used. Preparation of an extract from wheat embryo was carried out by the exactly same method as Example 1 except that the solution for extraction and the solution used for gel filtration contained 20 kinds of heavy hydrogen-labeled L-amino acids instead of 20 kinds of selenomethionine-containing L-amino acids. Concentration of the prepared extract was adjusted to 170˜250 A260 nm (A260/A280=1.5).\nAlthough the composition of the protein synthesis reaction solution is as same as that described in Example 1, it contains 20 kinds of heavy hydrogen-labeled L-amino acids instead of 20 kinds of selenomethionine-containing L-amino acids.\nThen enzymatic properties of the purified heavy hydrogen-labeled DHFR were biochemically investigated by the same manner as in Example 1. […]"}, "[3]": {"target": "T3, dihydrofolate reductase (DHFR), Natural-Type DHFR (Escherichia coli, UniProt P0ABQ4)", "T3 construct": "made in house; host or cells: wheat embryo extract cell-free protein synthesis (dialysis type)", "T3 sequence (P0ABQ4 1-159)": "T1 sequence (P0ABQ4 1-159)", "test": "enzymatic properties of DHFR (Table 2): Michaelis constant and maximum velocity, Natural-Type DHFR", "experimental": "as §1\nThen enzymatic properties of the purified heavy hydrogen-labeled DHFR were biochemically investigated by the same manner as in Example 1. As will be apparent from Table 2, both Vmax and Michaelis constant (Km) to NADPH which are parameters for enzymatic chemical property of natural-type DHFR and heavy hydrogen-labeled DHFR show no difference between both enzymes. Thus, it became clear that DHFR comprising heavy hydrogen-labeled amino acids maintained nearly the same enzymatic activity as the natural-type DHFR."}, "[4]": {"target": "T4, dihydrofolate reductase (DHFR), natural-type methionine-containing (Met-DHFR) (Escherichia coli, UniProt P0ABQ4)", "T4 construct": "made in house; host or cells: wheat embryo extract cell-free protein synthesis (dialysis type)", "T4 sequence (P0ABQ4 1-159)": "T1 sequence (P0ABQ4 1-159)", "test": "enzymatic properties of DHFR (Table 1): Michaelis constant and maximum velocity, Met-DHFR", "experimental": "as §1, §2"}},
  "data": [
    {"smiles": "NC(=O)C1=CN([C@@H]2O[C@H](COP(=O)(O)OP(=O)(O)OC[C@H]3O[C@@H](n4cnc5c(N)ncnc54)[C@H](OP(=O)(O)O)[C@@H]3O)[C@@H](O)[C@H]2O)C=CC1", "note": "[NADPH, nicotinamide adenine dinucleotide phosphate (NADPH) of a reduced type]", "values": [
      {"measurement": "maximum velocity Vmax", "setting": "[1]", "value": 0.137, "unit": "A560 nm/μg/min"},
      {"measurement": "Vmax", "setting": "[2]", "value": 0.261, "unit": "A560 nm/μg/min"},
      {"measurement": "Vmax", "setting": "[3]", "value": 0.127, "unit": "A560 nm/μg/min"},
      {"measurement": "maximum velocity Vmax", "setting": "[4]", "value": 0.143, "unit": "A560 nm/μg/min"}
    ]}
  ]
}
